Here are results for eight compounds from patent US20140163034A1, “INHIBITORS OF ANANDAMIDE TRANSPORT AND THEIR THERAPEUTIC USES” (IIT - Istituto Italiano di Tecnologia, priority 2011, published 2014).

The test system of one data set is carrageenan-treated mice. Put plainly: Carrageenan-induced inflammatory pain and paw edema in mice. Type of data set: in vivo. The settings on record: for effect of antagonist on the anti-hyperalgesic and anti-edema effects of ARN272: antagonist 1 mg/kg intraperitoneal, 30 min before carrageenan. The procedure:
Behavioral experiments were performed in accordance with the Ethical Guidelines of the International Association for the Study of Pain and approved by Italian regulations on protection of animals used for experimental and other scientific purposes (D.M. 116192) as well as with European Economic Community regulations (O.J. of E.C. L 358/1 Dec. 18, 1986). Behavioral testing was performed between 9:00 a.m. and 5:00 p.m., in a quiet room, during the light cycle. Mice were used once and were sacrificed at the end of the experiment by cervical dislocation. edema was elicited by injecting λ-carrageenan (1% weight/vol in sterile water, 20 μl) into the left hindpaw of mice. Edema was measured with a plethysmometer (Ugo Basile, Comerio, Italy) at different time intervals. Drug solutions were prepared immediately before use in saline containing 10% PEG-400 and 10% Tween 80. Mechanical hyperalgesia was determined by measuring the latency in seconds to withdraw the paw away from a constant mechanical pressure exerted onto the dorsal surface. A 15-g calibrated glass cylindrical rod (diameter=10 mm) chambered to a conical point (diameter=3 mm) was used to exert the mechanical force. The weight was suspended vertically between two rings attached to a stand and was free to move vertically. A cutoff time of 180 s was used. Withdrawal thresholds were measured on both the inflamed paw (ipsilateral) and not inflamed paw (contralateral) 2, 4, 6 and 24 hours after carrageenan injection. Thermal hyperalgesia was assessed by the method of Hargreaves et al. (1988) by measuring the latency to withdraw the hind paw from a focused beam of radiant heat (thermal intensity: infrared 3.0) applied to the plantar surface using a plantar test apparatus (Ugo Basile). The cutoff time was set at 30 s. Withdrawal latency were measured on both inflamed and not-inflamed paws ( ) 2, 4, 6 and 24 hours after carrageenan injection. Vehicle or ARN272 (0.01-3 mg/kg, intraperitoneal) were injected immediately before carrageenan. AM251, AM630 and AMG 9810 (1 mg/kg, intraperitoneal) were injected 30 min before carrageenan.

The target in a further data set is T1, rat FLAT-GST (Rattus norvegicus, UniProt P97612, DEL9-76).
T1 construct: made in house; host or cells: E. coli BL21
T1 sequence (P97612 with tags, fused parts or gaps DEL9-76): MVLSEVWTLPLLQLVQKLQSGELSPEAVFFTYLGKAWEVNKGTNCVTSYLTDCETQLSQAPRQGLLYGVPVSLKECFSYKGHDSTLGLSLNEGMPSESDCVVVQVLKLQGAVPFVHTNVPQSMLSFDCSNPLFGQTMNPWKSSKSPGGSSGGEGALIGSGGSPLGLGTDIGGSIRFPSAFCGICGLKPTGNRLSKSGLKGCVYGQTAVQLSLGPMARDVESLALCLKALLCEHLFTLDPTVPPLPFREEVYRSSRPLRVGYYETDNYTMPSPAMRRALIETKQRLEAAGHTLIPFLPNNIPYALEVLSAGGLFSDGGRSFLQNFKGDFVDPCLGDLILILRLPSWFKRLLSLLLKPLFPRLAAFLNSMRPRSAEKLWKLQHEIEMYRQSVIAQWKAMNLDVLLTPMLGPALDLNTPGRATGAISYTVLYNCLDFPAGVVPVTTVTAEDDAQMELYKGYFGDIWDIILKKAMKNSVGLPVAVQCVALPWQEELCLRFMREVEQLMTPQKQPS
Put plainly: [3H]-anandamide binding to purified GST-FLAT fusion protein. The method, then:
A pGEX-rFLAT plasmid containing fused rat FLAT and GST genes was constructed into a pGEX-4T vector (Amersham Biosciences, Piscataway, N.J.) and digested with BamH 1. The GST-FLAT fusion protein was generated in E. coli (BL21 strain, Novagen, San Diego, Calif.). E. coli were cultured in 2× yeast extract medium and induced with isopropyl-1-thio-β-D-galactopyranoside (IPTG) (0.1 mM). After induction, bacteria were grown at 27° C. for 10 h and harvested by centrifugation. The GST-FLAT fusion protein was purified using glutathione-sepharose beads (Amersham Biosciences), following manufacturer's instructions. Purified GST-FLAT was incubated at 25° C. for 2 h in HEPES buffer (50 mM, pH 7.0) containing KCl (50 mM), EDTA (5 mM), dithiothreitol (10 mM), and [^3H]-anandamide (15 Ci/mmol). Free from bound [^3H]-anandamide was separated on a Sephadex G-25 spin column (Amersham Biosciences) and radioactivity in the bound fraction was measured by liquid scintillation counting. Non-specific binding was determined in the presence of non-radioactive anandamide (10 μM).

The target of data set [1] is T2, FLAT-expressing Hek293 cells (Rattus norvegicus, UniProt P97612, DEL9-76).
T2 construct: expressed in transfected cells
T2 sequence (P97612 with tags, fused parts or gaps DEL9-76): T1 sequence (P97612 with tags, fused parts or gaps DEL9-76)
Put plainly: [3H]-anandamide accumulation (translocation) in FLAT-expressing Hek293 cells. Type of data set: cell-based. The settings on record: for IC50: 5 min at 37° C., read-out: IC50, inhibition of [3H]-anandamide accumulation in FLAT-expressing Hek293 cells.

Data set [2] concerns rat cortical neurons in primary cultures. Put plainly: [3H]-anandamide accumulation in rat cortical neurons in primary cultures. The following applies: Cortical neurone, read-out: IC50, inhibition of [3H]-anandamide accumulation in rat cortical neurons. Type of data set: cell-based. The method, then: Primary cultures of rat cortical neurons were prepared as described (Evans, M. S. et al., J Neurosci Methods, 79, 37 (1998)). Briefly, cerebral cortices from 18 day-old rat embryos were dissected and cells were dissociated gently with a glass Pasteur pipette in phosphate-buffered saline (PBS, 10 mM, pH=7.5) containing glucose (6%, weight/volume). The cells were plated in 6-well plates (at a density of 5×10^5 cells per well) coated with poly-(L)-ornithine (10 μg/ml) and poly(DL)-lysine (100 μg/ml), and cultured in Eagle's Minimum Essential Medium (MEM) supplemented with heat-inactivated horse serum (5%, vol/vol) and fetal bovine serum (FBS, 5%, vol/vol), glucose (30 mM), L-glutamine (2 mM), penicillin (10 units/ml), streptomycin (10 μg/ml) and HEPES (15 mM, pH 7.4). After 3 days in culture, media were replaced with Neurobasal (Invitrogen, Carlsbad, Calif.) supplemented with B-27 containing L-glutamine (0.1 mM), streptomycin (10 μg/ml) and penicillin (10 units/ml). The cultures were maintained at 37° C. in a humidified atmosphere of 95% air and 5% CO2. […] The cells were rinsed twice with Tris-Krebs buffer, scraped twice into sodium hydroxide (0.2 N, 0.5 ml) and transferred into scintillation vials. […] All experiments were conducted in triplicate.

A further data set has as its target T3, rat brain FAAH (Rattus norvegicus, UniProt P97612).
T3 construct: from tissue; host or cells: rat brain membranes
T3 sequence (P97612 1-579): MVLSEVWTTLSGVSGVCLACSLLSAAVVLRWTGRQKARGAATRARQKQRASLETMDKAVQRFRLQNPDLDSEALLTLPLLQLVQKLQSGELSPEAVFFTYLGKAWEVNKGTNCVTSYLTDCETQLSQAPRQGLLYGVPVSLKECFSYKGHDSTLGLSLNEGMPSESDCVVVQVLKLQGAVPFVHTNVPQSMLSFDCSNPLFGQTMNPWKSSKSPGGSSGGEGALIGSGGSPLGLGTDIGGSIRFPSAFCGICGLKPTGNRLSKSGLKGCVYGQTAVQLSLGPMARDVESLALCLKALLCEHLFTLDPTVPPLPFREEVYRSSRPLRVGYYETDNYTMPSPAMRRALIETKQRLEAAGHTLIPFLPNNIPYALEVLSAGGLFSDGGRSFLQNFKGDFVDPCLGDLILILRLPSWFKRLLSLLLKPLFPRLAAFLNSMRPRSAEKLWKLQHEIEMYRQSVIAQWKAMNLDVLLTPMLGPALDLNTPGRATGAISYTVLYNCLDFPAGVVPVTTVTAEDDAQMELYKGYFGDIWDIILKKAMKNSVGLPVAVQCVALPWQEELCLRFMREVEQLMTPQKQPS
Briefly: FAAH activity assay, rat brain. The settings on record: weak and incomplete inhibition. Type of data set: biochemical. The procedure:
Cells were harvested and subjected to sonication in Tris-HCl buffer (50 mM, pH 8.0) containing sucrose ([…]). Debris was removed by centrifugation for 5 min at 1,000×g, and protein concentration measured using a commercial kit (Bio-Rad, Hercules, Calif.). […] After stopping the reactions with chloroform/methanol (1:1, vol/vol, 1 ml), radioactivity was measured in the aqueous layers.

The next data set deals with T4, recombinant human FAAH-1 (Homo sapiens, UniProt O00519).
T4 sequence (O00519 1-579): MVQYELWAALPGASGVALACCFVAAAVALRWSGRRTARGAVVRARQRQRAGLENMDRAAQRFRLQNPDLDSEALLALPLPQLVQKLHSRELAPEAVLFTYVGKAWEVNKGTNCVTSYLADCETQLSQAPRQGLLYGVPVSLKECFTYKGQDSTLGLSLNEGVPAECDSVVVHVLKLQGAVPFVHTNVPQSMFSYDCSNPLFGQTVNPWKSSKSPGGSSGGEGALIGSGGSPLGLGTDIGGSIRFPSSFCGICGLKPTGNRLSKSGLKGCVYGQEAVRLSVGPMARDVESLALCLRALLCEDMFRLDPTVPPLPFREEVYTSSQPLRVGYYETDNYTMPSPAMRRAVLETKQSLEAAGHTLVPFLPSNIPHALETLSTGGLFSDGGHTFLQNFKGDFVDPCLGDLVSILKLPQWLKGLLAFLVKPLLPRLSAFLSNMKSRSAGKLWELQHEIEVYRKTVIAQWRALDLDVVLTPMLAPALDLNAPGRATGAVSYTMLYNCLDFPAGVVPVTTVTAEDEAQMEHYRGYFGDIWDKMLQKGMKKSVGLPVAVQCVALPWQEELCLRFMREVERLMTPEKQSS
Briefly: Hydrolysis of compound by incubation with recombinant human FAAH-1. Format: in vitro ADME. The settings on record: after 24 h at 25° C.

Data set [3] in a line: Fatty acid amide measurements ex vivo (plasma levels in mice). The settings on record: 1 mg/kg intraperitoneal. The procedure:
CD1 mice received intraperitoneal injections of vehicle (5% polyethylene glycol 400-5% Tween-80 in saline, 5 ml/kg) or ARN272 (1 mg/kg) and were sacrificed 1 h or 2 h later under isoflurane anaesthesia. Blood was collected through a left cardiac puncture and centrifuged at 2000×g for 30 min. Plasma (0.2 ml) was incubated with 1 ml cold acetone, centrifuged at 1,500×g for 15 min at 4° C. and suspended in 50% methanol (2 ml) containing the following deuterium-containing standards: […] Lipids were reconstituted in methanol (0.1 ml) and measured by isotope-dilution liquid chromatography/mass spectrometry (Fu, J. et al., J Biol Chem, 282, 1518 (2007)).

For data set [4], the target named is T5, CB1 cannabinoid receptors (Rattus norvegicus, UniProt P20272).
T5 construct: Brain membrane protein (50 μg) was incubated at 30° C. for 1 hr; from tissue; host or cells: rat brain membranes
Briefly: Cannabinoid receptor binding assay, [3H]-CP55940 to rat brain membranes.

Another data set has as its system rat cortical neurons. The settings on record: read-out: apparent Michaelis constant, KM, of anandamide transport; cited from earlier work.

T5 sequence (P20272 whole entry): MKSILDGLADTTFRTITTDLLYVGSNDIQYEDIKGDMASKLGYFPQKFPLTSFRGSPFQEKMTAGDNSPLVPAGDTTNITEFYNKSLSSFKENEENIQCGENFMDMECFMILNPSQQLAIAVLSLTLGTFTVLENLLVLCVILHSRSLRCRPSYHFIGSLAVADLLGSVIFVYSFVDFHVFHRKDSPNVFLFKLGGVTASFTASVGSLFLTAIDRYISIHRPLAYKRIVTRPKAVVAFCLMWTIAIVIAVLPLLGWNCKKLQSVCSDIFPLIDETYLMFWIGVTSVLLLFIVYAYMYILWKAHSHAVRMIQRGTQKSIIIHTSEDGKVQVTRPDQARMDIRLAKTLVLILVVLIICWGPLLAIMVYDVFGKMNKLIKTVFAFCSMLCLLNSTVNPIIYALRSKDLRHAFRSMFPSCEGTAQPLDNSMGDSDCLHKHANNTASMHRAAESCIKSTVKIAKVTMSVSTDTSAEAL

Regarding `Cc1c(C(=O)NN2CCCCC2)nn(-c2ccc(Cl)cc2Cl)c1-c1ccc(I)cc1` [AM251, reference compound], in the data set with carrageenan-treated mice, the “effect of antagonist on the anti-hyperalgesic and anti-edema effects of ARN272” value (from here on “effect of antagonist”) is reported as “suppressed”.

Usually IC50 stands for the concentration that inhibits the measured activity by half. As for `CCCCC/C=C\C/C=C\C/C=C\C/C=C\CCCC(=O)Nc1ccc(O)cc1` [AM404], the IC50 was determined as 5.3 µM on rat FLAT-GST (purified recombinant FLAT, read-out: IC50, displacement of [3H]-anandamide binding to FLAT-GST) and 4 µM in data set [1].

For `COc1ccc(C(=O)c2c(C)n(CCN3CCOCC3)c3cc(I)ccc23)cc1` [AM630, reference compound], the “effect of antagonist” value in the data set with carrageenan-treated mice is “ineffective”.

For `CC(C)(C)c1ccc(/C=C/C(=O)Nc2ccc3c(c2)OCCO3)cc1` [AMG9810, reference compound], the “effect of antagonist” value in the data set with carrageenan-treated mice is recorded as “ineffective”.

In general, inhibition refers to the change of the read-out against control, counted positive when it falls. In the case of `O=C(Nc1ccccc1)c1ccc(Nc2nnc(-c3ccc(O)cc3)c3ccccc23)cc1` [ARN272, 4-{[4-(4-hydroxyphenyl)phthalazin-1-yl]amino-N-phenylbenzamide}], the half-inhibitory concentration (IC50) in data set [1] worked out at 3.5 µM. Also, the half-maximal inhibitory concentration (IC50) in [2] was 1.5 µM. At rat brain FAAH, this compound returned an inhibition at 100 µM of 50%. Further, the “fraction hydrolyzed by recombinant human FAAH-1” value on recombinant human FAAH-1 is reported as “≈ 5%”. Moreover, in data set [3], the “plasma concentrations of anandamide” value is on record as “increased”, the “plasma levels of 2-AG” value was “without changing”, the “plasma levels of OEA” value is “without changing” and the “plasma levels of PEA” value is “without changing”. Further, in the data set with carrageenan-treated mice (0.01-3 mg/kg intraperitoneal), the “mechanical hyperalgesia in inflamed paws” value is on record as “dose-dependent reduction” and the “thermal hyperalgesia in inflamed paws” value was “dose-dependent reduction”. Moreover, the “duration of anti-hyperalgesic effect” value in the data set with carrageenan-treated mice (after intraplantar carrageenan) is on record as “up to 4 h”. Also, the paw edema result in the data set on carrageenan-treated mice (intraperitoneal) is recorded as “substantially reduced”. For the same compound, in data set [4], the “effect on [3H]-CP55940 binding to rat brain membranes” value is “did not significantly alter”.

For `CCCCC/C=C\C/C=C\C/C=C\C/C=C\CCCC(=O)NCc1ccoc1` [UCM707], the “effect on [3H]-anandamide accumulation in FLAT-expressing Hek293 cells” value (“effect on [3H]-anandamide accumulation” for short) in data set [1] (transport inhibitors) was “prevented”.

`CCCCC/C=C\C/C=C\C/C=C\C/C=C\CCCC(=O)Nc1ccc(O)cc1C` [VDM11]: in data set [1] (transport inhibitors), the “effect on [3H]-anandamide accumulation” value was “prevented”.

What is called Kd is the concentration at which binding is half-saturated. By Km is commonly meant the substrate concentration at which the rate is half of its maximum. Regarding `CCCCC/C=C\C/C=C\C/C=C\C/C=C\CCCC(=O)NCCO` [anandamide], the Kd on rat FLAT-GST (saturation binding, 25° C., 2 h, read-out: dissociation constant, Kd, of [3H]-anandamide binding to FLAT-GST) amounted to 2 µM. In addition, in data set [1] (non-radioactive anandamide, 100 μM), the “effect on [3H]-anandamide accumulation” value is “prevented”. Moreover, the Km in the data set on rat cortical neurons was 1.2 µM.
